Experimental data published in the NIST ThermoML archive (doi:10.1016/j.jct.2006.01.015).

Columns and labels:
[1] = 101 kPa, Liquid
[2] = xn = mol fraction of the nth substance listed; details: 101 kPa, Liquid

CN(C)C=O [dimethylformamide]
[1]
Details	mass density [kg/m3]
293.15 K	949.1
298.15 K	944.6
303.15 K	940.1
308.15 K	935.7
313.15 K	931.2
318.15 K	926.7

CC(=O)N(C)C [N,N-dimethylethanamide]
[1]
Details	mass density [kg/m3]
293.15 K	941
298.15 K	936.5
303.15 K	932
308.15 K	927.6
313.15 K	923.1
318.15 K	918.6

CN(C)C=O [dimethylformamide] + CC#N
[2], x2 = 0
Details	mass density [kg/m3]
293.15 K	949.1
298.15 K	944.6
303.15 K	940.1
308.15 K	935.7
313.15 K	931.2
318.15 K	926.7

CC#N [acetonitrile] + CC(=O)N(C)C
[2], x1 = 1
Details	mass density [kg/m3]
293.15 K	782.1
298.15 K	776.8
303.15 K	771.5
308.15 K	766.3
313.15 K	761
318.15 K	755.7

CC#N [acetonitrile] + NC=O
[2], x1 = 1
Details	mass density [kg/m3]
293.15 K	782.1
298.15 K	776.8
303.15 K	771.5
308.15 K	766.3
313.15 K	761
318.15 K	755.7

CNC(C)=O [N-methylacetamide]
[1]
Details	mass density [kg/m3]
293.15 K	958.4
298.15 K	954.2
303.15 K	950.1
308.15 K	945.9
313.15 K	941.7
318.15 K	937.6

NC=O [formamide]
[1]
Details	mass density [kg/m3]
293.15 K	1133
298.15 K	1129
303.15 K	1125
308.15 K	1121
313.15 K	1117
318.15 K	1113

CC#N [acetonitrile]
[1]
Details	mass density [kg/m3]
293.15 K	782.1
298.15 K	776.8
303.15 K	771.5
308.15 K	766.3
313.15 K	761
318.15 K	755.7

CC#N [acetonitrile] + CNC(C)=O
[2], x1 = 1
Details	mass density [kg/m3]
293.15 K	782.1
298.15 K	776.8
303.15 K	771.5
308.15 K	766.3
313.15 K	761
318.15 K	755.7
